Measured values: ChEMBL document CHEMBL3997765 (Medchemcomm, 2016)

Legend:
[1] = biological target: T1, Mitogen-activated protein kinase 14 (Homo sapiens, UniProt Q16539); assay: Inhibition of full length recombinant human GST-tagged p38alpha expressed in Escherichia coli at 10 uM using Ser/Thr04 peptide as substrate in presence of inactive MAPKAPK2 after 1 hr by FRET assay relative to control
[2] = biological target: Tyrosine-protein kinase ABL1 (Homo sapiens) (UniProt P00519); assay: Inhibition of recombinant human His-tagged ABL1 cytoplasmic domain expressed in baculovirus expression system at 10 uM by Z'-LYTE assay relative to control
[3] = biological target: RAC-alpha serine/threonine-protein kinase (Homo sapiens) (UniProt P31749); assay: Inhibition of full length recombinant human His-tagged PKBalpha expressed in baculovirus expression system at 10 uM by Z'-LYTE assay relative to control
[4] = biological target: Tyrosine-protein kinase BTK (Homo sapiens) (UniProt Q06187); assay: Inhibition of recombinant human His-tagged BTK cytoplasmic domain expressed in baculovirus expression system at 10 uM by Z'-LYTE assay relative to control
[5] = biological target: Serine/threonine-protein kinase Chk1 (Homo sapiens) (UniProt O14757); assay: Inhibition of full length recombinant human His-tagged CHK1 expressed in baculovirus expression system at 10 uM by Z'-LYTE assay relative to control
Chain of Serine/threonine-protein kinase Chk1 (Homo sapiens) (O14757 whole entry, canonical isoform): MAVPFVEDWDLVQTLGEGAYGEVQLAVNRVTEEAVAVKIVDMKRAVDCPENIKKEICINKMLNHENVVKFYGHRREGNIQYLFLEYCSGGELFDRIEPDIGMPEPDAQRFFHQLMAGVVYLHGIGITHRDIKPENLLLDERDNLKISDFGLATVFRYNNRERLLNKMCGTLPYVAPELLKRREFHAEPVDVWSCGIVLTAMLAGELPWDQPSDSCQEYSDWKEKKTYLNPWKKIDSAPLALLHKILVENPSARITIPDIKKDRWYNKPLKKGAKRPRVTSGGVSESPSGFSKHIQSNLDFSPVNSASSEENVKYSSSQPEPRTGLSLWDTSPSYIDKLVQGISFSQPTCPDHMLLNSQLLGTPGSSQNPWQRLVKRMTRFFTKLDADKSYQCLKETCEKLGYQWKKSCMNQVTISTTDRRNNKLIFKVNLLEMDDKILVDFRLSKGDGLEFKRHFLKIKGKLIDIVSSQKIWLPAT

[6] = biological target: Casein kinase I isoform gamma-2 (Homo sapiens) (UniProt P78368); assay: Inhibition of full length recombinant human His-tagged CK1gamma2 expressed in baculovirus expression system at 10 uM by Z'-LYTE assay relative to control
[7] = biological target: Epidermal growth factor receptor (Homo sapiens) (UniProt P00533); assay: Inhibition of recombinant human GST-tagged EGFR cytoplasmic domain (668 to 1210 residues) expressed in baculovirus expression system at 10 uM by Z'-LYTE assay relative to control
Chain of Epidermal growth factor receptor (Homo sapiens) (P00533 whole entry, the tested form may be a part): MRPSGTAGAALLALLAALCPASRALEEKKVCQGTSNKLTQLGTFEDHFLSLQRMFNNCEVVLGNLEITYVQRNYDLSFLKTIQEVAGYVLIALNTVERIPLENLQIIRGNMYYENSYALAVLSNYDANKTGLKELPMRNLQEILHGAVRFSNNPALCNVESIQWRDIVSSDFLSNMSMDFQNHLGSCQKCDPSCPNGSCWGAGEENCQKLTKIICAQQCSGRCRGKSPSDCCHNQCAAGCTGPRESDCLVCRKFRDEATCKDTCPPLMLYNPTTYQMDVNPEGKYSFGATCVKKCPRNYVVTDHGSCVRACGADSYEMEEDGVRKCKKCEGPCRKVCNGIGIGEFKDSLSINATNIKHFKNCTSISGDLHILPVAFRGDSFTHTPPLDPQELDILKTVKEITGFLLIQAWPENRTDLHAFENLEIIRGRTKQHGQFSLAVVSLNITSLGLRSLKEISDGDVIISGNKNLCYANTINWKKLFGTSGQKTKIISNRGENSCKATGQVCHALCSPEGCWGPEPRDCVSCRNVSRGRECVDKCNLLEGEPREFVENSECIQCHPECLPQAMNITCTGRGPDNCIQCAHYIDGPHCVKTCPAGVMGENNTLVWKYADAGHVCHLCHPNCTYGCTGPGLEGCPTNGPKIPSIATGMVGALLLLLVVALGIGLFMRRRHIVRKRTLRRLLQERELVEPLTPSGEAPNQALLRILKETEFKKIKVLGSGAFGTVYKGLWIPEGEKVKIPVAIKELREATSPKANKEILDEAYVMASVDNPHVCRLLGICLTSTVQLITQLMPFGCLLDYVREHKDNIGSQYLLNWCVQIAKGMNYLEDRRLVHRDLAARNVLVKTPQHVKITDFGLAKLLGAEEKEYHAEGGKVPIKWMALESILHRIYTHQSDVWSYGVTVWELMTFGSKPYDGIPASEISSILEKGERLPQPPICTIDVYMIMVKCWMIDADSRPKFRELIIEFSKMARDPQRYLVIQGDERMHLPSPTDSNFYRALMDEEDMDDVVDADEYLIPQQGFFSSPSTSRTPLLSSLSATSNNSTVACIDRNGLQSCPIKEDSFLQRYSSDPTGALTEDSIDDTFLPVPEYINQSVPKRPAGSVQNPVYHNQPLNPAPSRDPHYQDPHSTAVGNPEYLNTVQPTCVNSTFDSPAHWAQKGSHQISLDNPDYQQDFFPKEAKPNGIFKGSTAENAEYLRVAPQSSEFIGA

[8] = biological target: Receptor tyrosine-protein kinase erbB-2 (Homo sapiens) (UniProt P04626); assay: Inhibition of recombinant human His-tagged HER2 cytoplasmic domain (676 to 1255 residues) expressed in baculovirus expression system at 10 uM by Z'-LYTE assay relative to control
[9] = biological target: Fibroblast growth factor receptor 1 (Homo sapiens) (UniProt P11362); assay: Inhibition of recombinant human His-tagged FGFR1 cytoplasmic domain (308 to 731 residues) expressed in baculovirus expression system at 10 uM by Z'-LYTE assay relative to control
[10] = biological target: Receptor-type tyrosine-protein kinase FLT3 (Homo sapiens) (UniProt P36888); assay: Inhibition of recombinant human His-tagged FLT3 cytoplasmic domain (564 to 958 residues) expressed in baculovirus expression system at 10 uM by Z'-LYTE assay relative to control
[11] = biological target: Insulin receptor (Homo sapiens) (UniProt P06213); assay: Inhibition of recombinant human GST-tagged INSR cytoplasmic domain (1011 to 1382 residues) expressed in baculovirus expression system at 10 uM by Z'-LYTE assay relative to control
[12] = biological target: Interleukin-1 receptor-associated kinase 4 (Homo sapiens) (UniProt Q9NWZ3); assay: Inhibition of full length recombinant human His-tagged IRAK4 expressed in baculovirus expression system at 10 uM by Z'-LYTE assay relative to control
[13] = biological target: Tyrosine-protein kinase JAK3 (Homo sapiens) (UniProt P52333); assay: Inhibition of recombinant human GST-tagged JAK3 catalytic domain (781 to 1124 residues) expressed in baculovirus expression system at 10 uM by Z'-LYTE assay relative to control
[14] = biological target: Vascular endothelial growth factor receptor 2 (Homo sapiens) (UniProt P35968); assay: Inhibition of recombinant human His-tagged KDR cytoplasmic domain (789 to 1356 residues) expressed in baculovirus expression system at 10 uM by Z'-LYTE assay relative to control
[15] = biological target: Mast/stem cell growth factor receptor Kit (Homo sapiens) (UniProt P10721); assay: Inhibition of KIT (unknown origin) at 10 uM by Z'-LYTE assay relative to control
[16] = biological target: High affinity nerve growth factor receptor (Homo sapiens) (UniProt P04629); assay: Inhibition of recombinant human His-tagged TRKA cytoplasmic domain (441 to 796 residues) expressed in baculovirus expression system at 10 uM by Z'-LYTE assay relative to control
[17] = biological target: Hepatocyte growth factor receptor (Homo sapiens) (UniProt P08581); assay: Inhibition of recombinant human His-tagged MET cytoplasmic domain (956 to 1390 residues) expressed in baculovirus expression system at 10 uM by Z'-LYTE assay relative to control
[18] = biological target: Dual specificity mitogen-activated protein kinase kinase 1 (Homo sapiens) (UniProt Q02750); assay: Inhibition of full length recombinant human His-tagged MEK1 expressed in baculovirus expression system at 10 uM by Z'-LYTE assay relative to control
Chain of Dual specificity mitogen-activated protein kinase kinase 1 (Homo sapiens) (Q02750 whole entry): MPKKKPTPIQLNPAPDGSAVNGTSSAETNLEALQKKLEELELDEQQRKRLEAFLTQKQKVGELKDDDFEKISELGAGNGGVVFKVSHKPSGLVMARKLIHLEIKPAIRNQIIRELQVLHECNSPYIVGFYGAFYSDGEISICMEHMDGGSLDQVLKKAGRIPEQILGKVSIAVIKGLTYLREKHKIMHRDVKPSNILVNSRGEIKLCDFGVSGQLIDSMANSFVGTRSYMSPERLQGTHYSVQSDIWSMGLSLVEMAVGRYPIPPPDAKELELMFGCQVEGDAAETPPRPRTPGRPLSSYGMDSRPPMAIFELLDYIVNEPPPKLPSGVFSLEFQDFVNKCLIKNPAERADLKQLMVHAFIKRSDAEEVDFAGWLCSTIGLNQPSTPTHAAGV

[19] = biological target: T1, Mitogen-activated protein kinase 14; assay: Inhibition of full length recombinant human GST-tagged p38alpha expressed in Escherichia coli at 10 uM by Z'-LYTE assay relative to control
[20] = biological target: MAP kinase-activated protein kinase 2 (Homo sapiens) (UniProt P49137); assay: Inhibition of full length recombinant human His-tagged MAPKAPK2 expressed in Escherichia coli at 10 uM by Z'-LYTE assay relative to control
[21] = biological target: Platelet-derived growth factor receptor beta (Homo sapiens) (UniProt P09619); assay: Inhibition of recombinant human His-tagged PDGFRbeta cytoplasmic domain (558 to 1106 residues) expressed in baculovirus expression system at 10 uM by Z'-LYTE assay relative to control
[22] = biological target: Serine/threonine-protein kinase pim-1 (Homo sapiens) (UniProt P11309); assay: Inhibition of full length recombinant human His-tagged PIM1 expressed in baculovirus expression system at 10 uM relative to control
[23] = biological target: Protein kinase C beta type (Homo sapiens) (UniProt P05771); assay: Inhibition of full length recombinant human PKCbeta1 expressed in baculovirus expression system at 10 uM relative to control
Chain of Protein kinase C beta type (Homo sapiens) (P05771 2-671 limits assumed): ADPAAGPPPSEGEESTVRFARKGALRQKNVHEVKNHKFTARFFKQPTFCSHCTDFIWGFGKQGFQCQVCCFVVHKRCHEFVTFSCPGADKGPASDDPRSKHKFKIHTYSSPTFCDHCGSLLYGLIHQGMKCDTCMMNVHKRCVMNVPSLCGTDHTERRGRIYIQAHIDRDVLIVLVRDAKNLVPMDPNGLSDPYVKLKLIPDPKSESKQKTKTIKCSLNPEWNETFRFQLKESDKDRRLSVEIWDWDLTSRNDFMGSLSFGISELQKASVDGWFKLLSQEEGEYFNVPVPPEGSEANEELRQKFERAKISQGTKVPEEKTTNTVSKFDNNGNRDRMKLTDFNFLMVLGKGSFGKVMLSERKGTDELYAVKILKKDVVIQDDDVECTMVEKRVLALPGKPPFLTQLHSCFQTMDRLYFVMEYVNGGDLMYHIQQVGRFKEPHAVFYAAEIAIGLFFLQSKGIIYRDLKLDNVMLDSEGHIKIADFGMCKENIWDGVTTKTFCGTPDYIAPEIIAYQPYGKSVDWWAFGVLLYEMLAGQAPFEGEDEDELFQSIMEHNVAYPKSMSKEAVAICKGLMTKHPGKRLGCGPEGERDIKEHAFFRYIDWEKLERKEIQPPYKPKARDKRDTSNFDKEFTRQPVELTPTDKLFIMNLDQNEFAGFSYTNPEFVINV

[24] = biological target: Proto-oncogene tyrosine-protein kinase receptor Ret (Homo sapiens) (UniProt P07949); assay: Inhibition of recombinant human GST-tagged RET cytoplasmic domain (658 to 1114 residues) expressed in baculovirus expression system at 10 uM relative to control
[25] = biological target: Ribosomal protein S6 kinase beta-1 (Homo sapiens) (UniProt P23443); assay: Inhibition of recombinant human GST-tagged p70S6K catalytic domain (1 to 421 residues) expressed in baculovirus expression system at 10 uM relative to control
Chain of Ribosomal protein S6 kinase beta-1 (Homo sapiens) (P23443 whole entry, looked up, the tested form may be a part): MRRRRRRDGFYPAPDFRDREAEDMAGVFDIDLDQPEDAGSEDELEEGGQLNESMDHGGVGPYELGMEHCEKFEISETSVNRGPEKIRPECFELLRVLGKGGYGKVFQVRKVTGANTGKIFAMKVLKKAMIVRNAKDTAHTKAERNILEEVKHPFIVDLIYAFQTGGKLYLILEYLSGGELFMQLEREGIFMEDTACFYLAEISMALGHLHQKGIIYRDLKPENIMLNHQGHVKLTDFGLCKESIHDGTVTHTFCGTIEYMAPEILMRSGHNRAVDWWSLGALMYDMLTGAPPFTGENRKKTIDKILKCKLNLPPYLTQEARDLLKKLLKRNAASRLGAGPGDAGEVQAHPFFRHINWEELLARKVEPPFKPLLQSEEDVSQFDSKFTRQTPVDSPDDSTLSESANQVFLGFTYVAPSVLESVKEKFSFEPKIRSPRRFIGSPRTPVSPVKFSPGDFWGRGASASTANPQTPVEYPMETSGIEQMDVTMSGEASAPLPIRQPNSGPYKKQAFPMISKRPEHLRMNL

[26] = biological target: Proto-oncogene tyrosine-protein kinase Src (Homo sapiens) (UniProt P12931); assay: Inhibition of recombinant human C-terminal His-tagged SRC cytoplasmic domain expressed in baculovirus expression system at 10 uM by Z'-LYTE assay relative to control
[27] = biological target: Aurora kinase A (Homo sapiens) (UniProt O14965); assay: Inhibition of full length recombinant human His-tagged Aurora A expressed in baculovirus expression system at 10 uM by Z'-LYTE assay relative to control
[28] = biological target: Angiopoietin-1 receptor (Homo sapiens) (UniProt Q02763); assay: Inhibition of recombinant human GST-tagged TIE2 cytoplasmic domain (817 to 1101 residues) expressed in baculovirus expression system at 10 uM by Z'-LYTE assay relative to control
Chain of Angiopoietin-1 receptor (Homo sapiens) (Q02763 whole entry, the tested form may be a part): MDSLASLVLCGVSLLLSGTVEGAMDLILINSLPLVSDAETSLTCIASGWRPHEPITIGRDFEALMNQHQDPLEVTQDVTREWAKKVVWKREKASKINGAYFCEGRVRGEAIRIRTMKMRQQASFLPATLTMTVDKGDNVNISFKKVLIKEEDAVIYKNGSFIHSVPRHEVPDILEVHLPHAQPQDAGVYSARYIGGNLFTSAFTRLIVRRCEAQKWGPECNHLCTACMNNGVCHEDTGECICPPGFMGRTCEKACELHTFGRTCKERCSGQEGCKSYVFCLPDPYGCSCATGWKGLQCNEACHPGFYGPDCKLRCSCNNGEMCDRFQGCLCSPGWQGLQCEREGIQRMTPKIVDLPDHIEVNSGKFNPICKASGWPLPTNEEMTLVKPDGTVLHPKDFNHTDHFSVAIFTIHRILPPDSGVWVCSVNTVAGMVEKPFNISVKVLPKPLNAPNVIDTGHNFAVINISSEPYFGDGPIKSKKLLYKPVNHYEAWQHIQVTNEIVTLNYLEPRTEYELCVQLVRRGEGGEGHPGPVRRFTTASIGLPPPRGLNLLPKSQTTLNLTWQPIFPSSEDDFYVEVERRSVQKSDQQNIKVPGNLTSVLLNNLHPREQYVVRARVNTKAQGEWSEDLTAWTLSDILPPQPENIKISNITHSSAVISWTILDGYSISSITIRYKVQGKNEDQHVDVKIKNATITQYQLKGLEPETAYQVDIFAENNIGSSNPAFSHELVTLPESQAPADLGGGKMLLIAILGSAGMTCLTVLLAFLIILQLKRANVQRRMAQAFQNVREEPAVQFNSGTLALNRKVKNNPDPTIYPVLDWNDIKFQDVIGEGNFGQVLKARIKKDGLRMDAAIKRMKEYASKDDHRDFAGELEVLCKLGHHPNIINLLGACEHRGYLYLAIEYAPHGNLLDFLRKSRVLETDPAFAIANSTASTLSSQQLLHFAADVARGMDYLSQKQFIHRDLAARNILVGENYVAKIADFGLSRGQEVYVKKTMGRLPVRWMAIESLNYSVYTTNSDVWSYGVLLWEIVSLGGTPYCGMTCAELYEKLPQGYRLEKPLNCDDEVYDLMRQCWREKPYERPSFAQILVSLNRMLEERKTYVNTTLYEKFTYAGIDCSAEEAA

T1 sequence (Q16539 whole entry, the tested form may be a part): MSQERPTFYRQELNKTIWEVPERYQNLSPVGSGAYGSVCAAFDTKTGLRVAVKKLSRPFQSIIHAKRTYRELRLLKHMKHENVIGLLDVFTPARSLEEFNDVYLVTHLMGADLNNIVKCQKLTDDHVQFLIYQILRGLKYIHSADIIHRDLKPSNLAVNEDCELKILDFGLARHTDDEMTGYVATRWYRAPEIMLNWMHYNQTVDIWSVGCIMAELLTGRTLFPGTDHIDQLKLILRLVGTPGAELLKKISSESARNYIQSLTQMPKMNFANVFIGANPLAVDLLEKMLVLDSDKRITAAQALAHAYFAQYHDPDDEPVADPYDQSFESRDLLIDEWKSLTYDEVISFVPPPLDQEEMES

With `CC1=Nc2c(Sc3ccccc3)ncnc2Sc2ccccc21` as the compound, how does the inhibition [1] read?
The inhibition was 37%.

What about the inhibition [2] of the same compound?
The inhibition was 12%.

And the inhibition [3]?
Its inhibition is 5%.

And the inhibition [4]?
Its inhibition is 3%.

What about the inhibition [5] of the same compound?
The inhibition was 3%.

And the inhibition [6]?
Its inhibition is 6%.

What about the inhibition [7] of the same compound?
The inhibition was 1%.

And the inhibition [8]?
The inhibition was -4%.

And the inhibition [9]?
Its inhibition is -4%.

What about the inhibition [10] of the same compound?
Its inhibition is 6%.

What about the inhibition [11] of the same compound?
Its inhibition is 2%.

What about the inhibition [12] of the same compound?
The inhibition was 3%.

And the inhibition [13]?
Its inhibition is -1%.

And the inhibition [14]?
The inhibition was 12%.

And the inhibition [15]?
Its inhibition is 3%.

What about the inhibition [16] of the same compound?
Its inhibition is 2%.

What about the inhibition [17] of the same compound?
The inhibition was 14%.

What about the inhibition [18] of the same compound?
The inhibition was 2%.

What about the inhibition [19] of the same compound?
The inhibition was 74%.

And the inhibition [20]?
Its inhibition is 8%.

And the inhibition [21]?
Its inhibition is -1%.

What about the inhibition [22] of the same compound?
The inhibition was 3%.

What about the inhibition [23] of the same compound?
The inhibition was 1%.

What about the inhibition [24] of the same compound?
Its inhibition is 7%.

And the inhibition [25]?
Its inhibition is 1%.

And the inhibition [26]?
The inhibition was 3%.

What about the inhibition [27] of the same compound?
The inhibition was 6%.

And the inhibition [28]?
Its inhibition is 11%.
